Measurements: patent US20230372361A1, “USE OF OXYGENATED CHOLESTEROL SULFATES FOR TREATING INFLAMMATORY CONDITIONS” (Durect Corporation, priority 2020, published 2023)

Experiments:
[1] = Metabolite profiling of plasma and feces after oral dose (radio-HPLC, HPLC/MS); design: species or system rats; conditions: Sprague Dawley, rat, in vivo, 75 mg/kg
Procedure: Radiolabeled components in plasma and feces extracts were profiled and identified using radio-high performance liquid chromatography (HPLC) and high performance liquid chromatography/mass spectrometry (HPLC/MS) methods.
Plasma pools were prepared for Group 1 (75 mg/kg, [14C]-25HC3S) samples collected at 2, 4, and 6 hours post-dose. […] One metabolite M29 was identified as 25-hydroxycholesterol with 37% ROI and a concentration of 1233 ng-equiv./g.
Feces pools were prepared for Group 2 (75 mg/kg, [^14C]-25HC3S) samples collected from 0 to 24, 24 to 48, 48 to 72, 72 to 96, 96 to 120, 120 to 144, and 144 to 168 hours post-dose. A total of eleven metabolites were identified. None of the metabolites were present at ≥5% of dose. Metabolites present at 2-5% of dose were M1(4.5% of total dose and 1%-69% ROI), M3 (4.6% of total dose and 1%-44% ROI), M4 (2.0% of total dose and 0%-10% ROI), M8 (3.1% of total dose and 1%-46% ROI), M29 (1.9% of total dose and 0%-2% ROI), and M30 (3.3% of total dose and 0%-5% ROI).

[2] = Metabolite profiling of plasma, urine, feces after intravenous dose (HPLC radiodetection, MS); type: in vivo, rats; conditions: iv 10 mg/kg
Procedure: Plasma pools were made from Group 1 rats at the 0.083, 0.25, 0.5, and 1-hour collection time points.
Urine pools were prepared for Group 2 at 0 to 6 and 6 to 12 hours post-dose. […] Four metabolites present at <10% relative observed intensity in at least 1 sample were M7 (<5% relative observed intensity), M16 (<3% relative observed intensity), M19 (<6% relative observed intensity), and M25 (<5% relative observed intensity).
Feces pools were prepared for Group 2 at 0 to 12, 12 to 24, and 24 to 48 hours post-dose.

DNMT1/3a/3b = DNMT1/3a/3b activities, overall statements; type: biochemical; conditions: for effect on enzymatic activities: controls
Procedure: For the DNMT1 activity assay, the substrate solution, 0.001 mg/ml Poly(dI-dC):Poly(dI-dC) in 50 mM Tris-HCl, pH 7.5, 50 mM NaCl, 5 mM EDTA, 5 mM DTT, 1 mM PMSF, 5% glycerol, 0.01% Brij35, 1% DMSO was used. For the DNMT3a/3b activity assay, 0.0075 mg/ml Lambda DNA in 50 mM Tris-HCl, pH 7.5, 50 mM NaCl, 5 mM EDTA, 5 mM DTT, 1 mM PMSF, 5% glycerol, 1% DMSO, was used. The indicated DNMT1, DNMT3a, or DNMT3b was added to the appropriate substrate solution and gently mixed. […] The mixtures were first incubated for 15 min, then ^3H-SAM was added to the reaction mixture to initiate the reaction, and the mixture was incubated for 60 min at 30° C. Following incubation, the reaction mixture was finally transferred to filter-paper for detection of radioactivity counts.

C[C@H](CCCC(C)(C)O)[C@H]1CC[C@H]2[C@@H]3CC=C4C[C@@H](O)CC[C@]4(C)[C@H]3CC[C@]12C [M29, 25-hydroxycholesterol]
ROI in feces [1]: 0-2%

desmosterol sulfate
detection in plasma, urine, or feces samples [2]: Neither desmosterol sulfate nor 25-hydroxycholesterol was detected

C[C@@H](CO)CCC[C@@H](C)[C@H]1CC[C@H]2[C@@H]3CC=C4C[C@@H](O)CC[C@]4(C)[C@H]3CC[C@]12C [27HC, 27-Hydroxycholesterol]
effect on other enzymes (than DNMT-1) (DNMT1/3a/3b): had no effect on other enzymes

CC(C)CCC[C@@H](C)[C@H]1CC[C@H]2[C@@H]3CC=C4C[C@@H](OS(=O)(=O)O)CC[C@]4(C)[C@H]3CC[C@]12C [Xol3S, 5-cholesten-3β-ol, 3-sulfate]
effect on enzymatic activities (DNMT1/3a/3b): did not significantly affect enzymatic activities

C[C@H](CCCC(C)(C)O)[C@H]1CC[C@H]2[C@@H]3CC=C4C[C@@H](O)CC[C@]4(C)[C@H]3CC[C@]12C [25HC, 25-Hydroxycholesterol, reference compound]
detection in plasma, urine, or feces samples [2]: Neither desmosterol sulfate nor 25-hydroxycholesterol was detected

CC(C)CCC[C@@H](C)[C@H]1CC[C@H]2[C@@H]3CC=C4C[C@@H](O)CC[C@]4(C)[C@H]3CC[C@]12C [Xol, Cholesterol]
effect on enzymatic activities (DNMT1/3a/3b): did not significantly affect enzymatic activities
